# Values joined by “and” are separate entries in the source; they are usually repeats but may differ in a detail not shown here. Equal values may be shown once. “Also recorded” adds a separate entry of the source. Read-outs that look alike come from different tables or passages of the source.
# Experiments:
# [1] = netupitant; cited from earlier work
# [2] = Study 4 pilot bioequivalence study, PK after single oral NEPA; assay type: in vivo; settings: human, plasma
# [3] = Study 11 population PK/pharmacodynamic study in cancer patients; assay type: in vivo, human; settings: population PK modeling in patients
# [4] = Apical-to-basolateral permeability in Caco-2 monolayer; assay type: in vitro ADME; settings: human
# [5] = target: CYP2D6 (Homo sapiens, UniProt P10635); experiment: In vitro CYP2D6 inhibition; assay type: in vitro ADME
# [6] = Oral NEPA PK in cancer patients, summary across studies; assay type: in vivo; settings: human, plasma
# [7] = design: species or system human; settings: estimated from t1/2
# [8] = Biopharmaceutics Classification System class and solubility in water; assay type: physicochemical
# [9] = target: NK1 receptor (Homo sapiens, UniProt P25103); settings: NG108-15 cells; netupitant and palonosetron combined; cited from earlier work
# [10] = Study 10 comparative bioavailability study; assay type: in vivo, human
# [11] = Study 5 bioequivalence study, PK after single oral NEPA; assay type: in vivo, human
# [12] = target: CYP3A4 (Homo sapiens, UniProt P08684); settings: in vitro; cited from earlier work
# [13] = absorption, binding, metabolic, or excretory level; cited from earlier work
# [14] = Study 12 PK/safety and DDI study in cancer patients; assay type: in vivo; settings: human, plasma, oral
# [15] = tested on: NG108‐15 cells; settings: netupitant and palonosetron combined; cited from earlier work
# [16] = cited from earlier work
# [17] = cited from earlier work; remark: listed apart in the source
# [18] = target: T1, P‐glycoprotein (P‐gp) efflux transporter (Homo sapiens, UniProt P08183); experiment: In vitro interaction with P-gp; assay type: in vitro ADME
# [19] = clinical; settings: human, in vivo, po
# [20] = Study 9 replicate crossover bioequivalence study; assay type: in vivo, human
# [21] = Octanol-water partition coefficient; assay type: physicochemical
# [22] = Absolute / oral bioavailability; assay type: in vivo; settings: human, plasma, oral
# [23] = tested on: NK1 receptor; settings: PET; at 6 hours after single 300-mg oral netupitant; cited from earlier work
# [24] = target: T1, P‐glycoprotein (P‐gp) efflux transporter; settings: in vitro, cited from earlier work
# [25] = cited from earlier work; for CL/F / Cmax / Tmax / Vz/F / t1/2: Study 8, healthy volunteers (22), NEPA FDC, mean (CV%)
# [26] = Study 2 ADME study of [14C]-netupitant; assay type: in vivo, human; settings: estimated at day 29 after administration
# [27] = Binding to plasma proteins; assay type: in vitro ADME; settings: human, plasma
# [28] = tested on: plasma proteins; experiment: Binding to plasma proteins; assay type: in vitro ADME
# [29] = Study 11 population PK, patients (117), NEPA FDC, cited from earlier work
# [30] = single-dose NEPA with 400-mg ketoconazole for 12 days vs alone
# [31] = single-dose NEPA with daily 600-mg rifampicin for 17 days
# T1 sequence (P08183 whole entry): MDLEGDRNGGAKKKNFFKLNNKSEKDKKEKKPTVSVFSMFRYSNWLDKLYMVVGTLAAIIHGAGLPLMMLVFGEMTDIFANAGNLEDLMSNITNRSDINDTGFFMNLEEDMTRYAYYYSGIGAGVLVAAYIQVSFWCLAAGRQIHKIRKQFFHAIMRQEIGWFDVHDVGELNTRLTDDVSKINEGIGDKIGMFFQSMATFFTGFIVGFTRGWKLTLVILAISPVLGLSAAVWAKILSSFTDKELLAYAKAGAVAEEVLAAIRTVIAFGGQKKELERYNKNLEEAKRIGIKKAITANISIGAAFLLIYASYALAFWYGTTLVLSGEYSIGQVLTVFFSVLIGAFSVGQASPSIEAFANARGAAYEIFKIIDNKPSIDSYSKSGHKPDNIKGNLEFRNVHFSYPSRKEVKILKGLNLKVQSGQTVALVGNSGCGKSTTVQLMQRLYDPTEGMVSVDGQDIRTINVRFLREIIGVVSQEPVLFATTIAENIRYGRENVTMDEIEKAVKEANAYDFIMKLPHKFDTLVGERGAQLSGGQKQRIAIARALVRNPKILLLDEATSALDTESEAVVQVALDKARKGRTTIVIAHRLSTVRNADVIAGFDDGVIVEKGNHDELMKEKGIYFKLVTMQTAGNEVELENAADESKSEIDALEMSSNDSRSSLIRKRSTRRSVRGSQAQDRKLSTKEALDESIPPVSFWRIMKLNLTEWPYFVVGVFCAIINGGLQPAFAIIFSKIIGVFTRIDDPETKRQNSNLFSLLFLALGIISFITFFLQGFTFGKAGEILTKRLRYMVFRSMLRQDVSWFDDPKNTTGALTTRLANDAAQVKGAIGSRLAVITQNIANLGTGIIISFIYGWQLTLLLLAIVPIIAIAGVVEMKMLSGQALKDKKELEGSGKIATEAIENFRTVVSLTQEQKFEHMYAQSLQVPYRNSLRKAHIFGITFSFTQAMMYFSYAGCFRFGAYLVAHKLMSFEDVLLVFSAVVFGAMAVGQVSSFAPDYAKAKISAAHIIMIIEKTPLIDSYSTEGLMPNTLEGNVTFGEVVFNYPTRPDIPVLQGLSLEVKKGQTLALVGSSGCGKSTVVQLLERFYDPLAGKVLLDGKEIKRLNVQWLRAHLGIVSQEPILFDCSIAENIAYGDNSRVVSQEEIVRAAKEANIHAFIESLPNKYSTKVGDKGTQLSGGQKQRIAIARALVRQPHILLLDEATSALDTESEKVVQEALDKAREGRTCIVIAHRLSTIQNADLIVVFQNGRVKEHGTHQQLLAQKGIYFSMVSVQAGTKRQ
# Chain of CYP3A4 (P08684 whole entry): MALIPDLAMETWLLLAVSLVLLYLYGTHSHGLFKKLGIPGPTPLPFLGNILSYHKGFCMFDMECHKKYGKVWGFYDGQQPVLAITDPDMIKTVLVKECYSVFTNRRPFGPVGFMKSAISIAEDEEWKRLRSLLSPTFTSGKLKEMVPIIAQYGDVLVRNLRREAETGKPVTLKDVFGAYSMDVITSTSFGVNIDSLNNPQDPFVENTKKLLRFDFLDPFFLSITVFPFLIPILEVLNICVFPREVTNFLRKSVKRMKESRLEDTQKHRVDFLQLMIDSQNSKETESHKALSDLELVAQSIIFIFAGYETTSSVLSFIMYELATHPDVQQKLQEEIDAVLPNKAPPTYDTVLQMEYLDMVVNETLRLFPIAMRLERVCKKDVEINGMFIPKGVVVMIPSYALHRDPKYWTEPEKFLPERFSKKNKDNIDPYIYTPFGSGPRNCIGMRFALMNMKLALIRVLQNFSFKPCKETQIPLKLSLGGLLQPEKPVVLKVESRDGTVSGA
# Chain of NK1 receptor (Homo sapiens, UniProt P25103) (P25103 whole entry, species assumed): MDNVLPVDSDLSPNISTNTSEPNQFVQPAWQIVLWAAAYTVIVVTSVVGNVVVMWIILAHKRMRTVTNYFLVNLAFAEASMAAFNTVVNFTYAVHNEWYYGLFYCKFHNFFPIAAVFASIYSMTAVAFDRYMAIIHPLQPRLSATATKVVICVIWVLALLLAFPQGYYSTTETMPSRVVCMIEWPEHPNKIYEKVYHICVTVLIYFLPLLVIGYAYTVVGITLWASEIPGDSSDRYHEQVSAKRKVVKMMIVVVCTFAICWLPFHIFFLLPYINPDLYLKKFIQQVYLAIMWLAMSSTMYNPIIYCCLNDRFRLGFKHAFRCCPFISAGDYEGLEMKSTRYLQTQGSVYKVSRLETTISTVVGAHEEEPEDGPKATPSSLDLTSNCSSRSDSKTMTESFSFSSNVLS
# Chain of CYP2D6 (P10635 whole entry): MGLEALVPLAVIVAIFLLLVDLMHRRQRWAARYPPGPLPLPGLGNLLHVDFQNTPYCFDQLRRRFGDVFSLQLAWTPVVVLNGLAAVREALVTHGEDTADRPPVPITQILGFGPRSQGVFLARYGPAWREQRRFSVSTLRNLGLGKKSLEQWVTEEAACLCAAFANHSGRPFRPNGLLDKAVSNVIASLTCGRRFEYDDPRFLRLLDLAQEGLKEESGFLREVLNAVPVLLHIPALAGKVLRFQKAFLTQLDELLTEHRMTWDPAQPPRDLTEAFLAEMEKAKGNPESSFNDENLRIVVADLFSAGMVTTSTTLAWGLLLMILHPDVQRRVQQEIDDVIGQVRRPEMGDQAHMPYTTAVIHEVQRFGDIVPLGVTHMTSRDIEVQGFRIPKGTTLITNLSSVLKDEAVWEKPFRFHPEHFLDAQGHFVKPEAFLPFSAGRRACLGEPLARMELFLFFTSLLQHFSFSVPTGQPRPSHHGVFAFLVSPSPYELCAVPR
compound,measurement,setting,value
Cc1ccccc1-c1cc(N2CCN(C)CC2)ncc1N(C)C(=O)C(C)(C)c1cc(C(F)(F)F)cc(C(F)(F)F)c1 [netupitant],solubility in water,[1],very slightly soluble
same,Tmax,[2],5.38 h
same,Vd/F,[2],2780 L
same,half-life,[2],3.72 days
same,absorption lag time,[3],0.77 h
same,absorption rate constant,[3],0.956 h⁻¹
same,Papp,[4],> 20 ×10⁻⁶ cm/s
same,inhibition or induction of CYP2D6,[5],not an inhibitor or inducer
same,CL/F,"Healthy volunteers, Min-Max of study means, single oral NEPA",16.3 to 26.3 L/h
same,time after dosing until which plasma concentrations were quantifiable,"after NEPA, M2 below LLOQ thereafter, others up to last observation time",10 days
same,plasma concentration as fraction of mean Cmax,at 3 hours after oral NEPA,approximately 80%
same,peak plasma concentration of unbound netupitant,"human, in vivo",0.65 µM
same,Cmax,[6],477 to 567 ng/mL
same,Tmax,[6],4.02 to 4.56 h
same,Vd/F,[6],1660 to 2260 L
same,fraction from previous NEPA administration eliminated at next dose,[7]; chemotherapy every 2 weeks,approximately 95%
same,fraction from previous NEPA administration eliminated at next dose,[7]; chemotherapy every 3 weeks,approximately 99%
same,Biopharmaceutics Classification System class,[8],2
same,combined effect on triggering NK1 receptor internalization,[9],additive effects
same,CL/F,"[10]; Study 10, healthy volunteers (24), NEPA FDC standard dissolution, mean (CV%)",25.7 (40.9) L/h
same,Cmax,"[10]; human, plasma, oral",374 ng/mL
same,Tmax,"[10]; human, plasma, oral",5.15 h
same,Vd/F,"[10]; human, plasma, oral",3160 L
same,half-life,"[10]; human, plasma, oral",3.75 days
same,CL/F,"[11]; Study 5, healthy volunteers (47), single oral NEPA FDC, mean (CV%)",26.3 (47.4) L/h
same,Cmax,"[11]; human, plasma, po",434 ng/mL
same,Tmax,"[11]; human, plasma, po",5.07 h
same,Vd/F,"[11]; human, plasma, po",3310 L
same,half-life,"[11]; human, plasma, po",3.98 days
same,CYP3A4 inhibition,[12],moderate inhibitor
same,PK interaction between netupitant and palonosetron,[13],no relevant PK interactions
same,Vd/F,[14],1860 to 2260 L
same,combined effect on inhibition of substance P-mediated response,[15],synergistic effects
same,mass balance recovery of total radioactivity in urine,"[16]; [14C]-netupitant and its metabolites M1, M2, and M3",4.75%
same,administered dose excreted through the feces (hepatic/biliary route),[16]; netupitant and its metabolites,87% and 86.5%
same,fold increase of AUCinf,[17]; [30],2.4 fold
same,fold increase of Cmax,[17]; [30],1.2 fold
same,fold decrease of AUCinf,[17]; [31],4.9 fold
same,fold decrease of Cmax,[17]; [31],2.2 fold
same,Ki,[18],3 µM
same,fold by which unbound peak plasma concentration is lower than P-gp Ki,"[18]; human, not told, oral",approximately 5 fold
same,Cmax,[19],374 to 650 ng/mL
same,Tmax,[19],4.36 to 5.66 h
same,Vd/F,[19],1980 to 3310 L
same,half-life,[19],3.14 to 4.22 days
same,CL/F,"[20]; Study 9, healthy volunteers (82), NEPA FDC commercial product, mean (CV%)",26.2 (51.2) L/h
same,Cmax,"[20]; human, plasma, oral",454 ng/mL
same,Tmax,"[20]; human, plasma, oral",5.01 h
same,Vd/F,"[20]; human, plasma, oral",2740 L
same,half-life,"[20]; human, plasma, oral",3.19 days
same,logP,[21],5.1
same,bioavailability,[22],63 to 87%
same,NK1 receptor occupancy in the striatum,[23],92.5%
same,substrate of P-gp (MDR1/P-gp) efflux transporter,[24],not a P‐gp substrate; also recorded: not substrates
same,inhibitor of P-gp efflux transporter,[24]; parent drugs,P‐gp inhibitor
same,CL/F,[25]; fasted,20.5 (52.7) L/h
same,Cmax,[25]; fasted,596.4 (39.1) ng/mL
same,Tmax,[25]; fasted,5.14 (17.3) h
same,Vz/F,[25]; fasted,2851 (57.3) L
same,t1/2,[25]; fasted,101.2 (52.2) h
same,CL/F,[25]; fed,16.3 (23.1) L/h
same,Cmax,[25]; fed,649.8 (21.8) ng/mL
same,Tmax,[25]; fed,5.66 (17.1) h
same,Vz/F,[25]; fed,1984 (40.1) L
same,t1/2,[25]; fed,86.3 (46.2) h
same,AUCinf and Cmax under fed (high-fat breakfast) vs fasting conditions,"[25]; open, randomized, 2-way crossover study in healthy volunteers",similar
same,fraction of netupitant eliminated,[26],approximately 90%
same,fraction unbound,[27],< 0.01
same,binding to plasma proteins,[28],> 99%
same,Cmax,[29]; mean (CV%),567.3 (38.2) ng/mL
same,Tmax,[29]; mean (CV%),4.02 (59.1) h
same,t1/2,[29]; mean (CV%),92.8 (32.8) h
same,CL/F,[29]; value (%RSE),20.5 (%RSE 16.3) L/h
